These are literature values, as cited in patent US9610295B2, “Method for treating erectile dysfunction” (priority 2010, dated 2017).

Data set [1] addresses phosphodiesterase type 5 (PDE5) (Homo sapiens, UniProt O76074). The settings on record: PDE5 vs PDE6.
The conditions of data set [2]: oral administration, Viagra formulation.
The conditions of data set [3]: in vivo.

On to `CCCc1nn(C)c2c(=O)[nH]c(-c3cc(S(=O)(=O)N4CCN(C)CC4)ccc3OCC)nc12` [sildenafil, 1-[[3-(6,7-dihydro-1-methyl-7-oxo-3-propyl-1H-pyrazolo[4,3-d]pyrimidin-5-yl)-4-ethoxyphenyl]sulfonyl]-4-methyl piperazine], for which the “potency for PDE5 compared to PDE6” value in data set [1] was “about 10 fold”. Further, the absolute bioavailability entry in data set [2] was “about 40%”. Turning to `CN1CC(=O)N2[C@H](c3ccc4c(c3)OCO4)c3[nH]c4ccccc4c3C[C@@H]2C1=O` [tadalafil, (6R-trans)-6-(1,3-benzodioxol-5-yl)-2,3,6,7,12,12a-hexahydro-2-methylpyrazino[1,2:1,6]-pyrido[3,4-6]indole-1,4-dione], in data set [3], the half-life entry is recorded as “about 17.5 hours”.
